In experiment [1] the test system is experimental autoimmune encephalomyelitis (EAE). The experiment can be described thus: experimental autoimmune encephalomyelitis (EAE) in mice. In kind it is in vivo. Particulars: C57BL/6 mice, MOG35-55 in CFA, 150 mg/kg QD or BID.
Experiment [2] concerns CD4+ human T cells. Description: cytokine secretion by CD4+ human T cells stimulated with anti-CD3/CD28. In kind it is cell-based. The text has this:
Activation of resting T cells, resulting in cytokine secretion and proliferation, involves two distinct signals from antigen-presenting cells (APCs), mimicked by co-stimulation of the T cell receptor (TCR)/CD3 complex and the CD28 receptor. […] Under the same conditions, the inhibition of IFN-γ and IL-2 was not observed (FIG. 2).

The target of experiment [3] is ROCK1 (Homo sapiens (Human), UniProt Q13464). The experiment can be described thus: Invitrogen Z'-LYTE kinase assay, ROCK1 inhibition. Type of experiment: biochemical. Particulars: 5 uM ATP.
Excerpt: (§1) Dose response curves for Rho-kinase inhibition were derived from a Invitrogen Z′-LYTE™ Kinase Assay Kit (Invitrogen catalog number PV3793). Purified active ROCK1 and ROCK2 were obtained from Invitrogen (catalog numbers ROCK1, PV3691 and ROCK2, PV3759). The kit components include a coumarin and fluorescein labeled peptide based on myosin light chain 2 ([sequence]), a proprietary protease containing development reagent and a proprietary Stop buffer used to terminate the development reaction. The inhibitory activities of compounds are measured according to the manufactures protocol. Briefly, decreasing concentrations of test compounds or the known ROCK inhibitor Y-27963, are added, from 10 uM to 2.56×10^−5 uM to reaction buffer containing 50 mM HEPES pH 7.5, 10 mM MgCl2, 5 mM EGTA, and 0.05% Brij-35 and of ROCK1 at 0.18 ug/mL or ROCK2 at 0.8 ug/mL in assay dilution buffer. This mixture is overlayed into a white 96-well half area plate and the reaction is initiated with the addition of 5 uM ATP for ROCK1 or 12 uM ATP for ROCK2. The assay proceeds at room temperature for 1 hour followed by the addition of development reagent, and further incubation for 1 hour at room temperature. STOP reagent is then added and the reaction and immediately the coumarin and fluorescein emission signals are read on a Tecan Infinite M1000 fluorescence plate reader (excitation: 400 nm; emission 445 and 520 nm, respectively). By comparing the emission ratios of the test samples against control samples, percent phosphorylation values are calculated and the concentration of inhibitor that produces ½ inhibition of kinase activity (IC50) is determined using Prism.
The target in experiment [4] is ROCK2 (Homo sapiens (Human), UniProt O75116). The experiment can be described thus: Invitrogen Z'-LYTE kinase assay, ROCK2 inhibition. Type of experiment: biochemical. Particulars: ROCK2 0.8 ug/mL, 12 uM ATP.
Excerpt: as §1
The target in experiment [5] is human VEGFR2 (Homo sapiens (Human), UniProt P35968). The experiment can be described thus: Biacore analysis of binding to human VEGFR2. Particulars: human antigen.
For experiment [6], the target named is rat VEGFR2 (Rattus norvegicus (Rat), UniProt O08775). The experiment can be described thus: Biacore analysis of binding to rat VEGFR2. To be noted: rat antigen. How it is done: The binding constants of Mab 147 and Mab 149 as well as the parent Mab 160 for human, murine, and rat VEGFR2 were determined by Biacore analysis (Table 4).
Background: In SPR one partner is held on a chip, and binding of the other changes the refractive index at the surface.

For experiment [7], the target named is murine VEGFR2 (Mus musculus (Mouse), UniProt P35918). The experiment can be described thus: Biacore analysis of binding to murine VEGFR2. To be noted: murine antigen.

Several values for one entry are separate records, joined by “and”; a condition that tells them apart may be missing. Equal entries are not always repeated. Entries after “also recorded” stand apart in the source; their conditions may differ.

Chain of ROCK1 (Q13464 whole entry): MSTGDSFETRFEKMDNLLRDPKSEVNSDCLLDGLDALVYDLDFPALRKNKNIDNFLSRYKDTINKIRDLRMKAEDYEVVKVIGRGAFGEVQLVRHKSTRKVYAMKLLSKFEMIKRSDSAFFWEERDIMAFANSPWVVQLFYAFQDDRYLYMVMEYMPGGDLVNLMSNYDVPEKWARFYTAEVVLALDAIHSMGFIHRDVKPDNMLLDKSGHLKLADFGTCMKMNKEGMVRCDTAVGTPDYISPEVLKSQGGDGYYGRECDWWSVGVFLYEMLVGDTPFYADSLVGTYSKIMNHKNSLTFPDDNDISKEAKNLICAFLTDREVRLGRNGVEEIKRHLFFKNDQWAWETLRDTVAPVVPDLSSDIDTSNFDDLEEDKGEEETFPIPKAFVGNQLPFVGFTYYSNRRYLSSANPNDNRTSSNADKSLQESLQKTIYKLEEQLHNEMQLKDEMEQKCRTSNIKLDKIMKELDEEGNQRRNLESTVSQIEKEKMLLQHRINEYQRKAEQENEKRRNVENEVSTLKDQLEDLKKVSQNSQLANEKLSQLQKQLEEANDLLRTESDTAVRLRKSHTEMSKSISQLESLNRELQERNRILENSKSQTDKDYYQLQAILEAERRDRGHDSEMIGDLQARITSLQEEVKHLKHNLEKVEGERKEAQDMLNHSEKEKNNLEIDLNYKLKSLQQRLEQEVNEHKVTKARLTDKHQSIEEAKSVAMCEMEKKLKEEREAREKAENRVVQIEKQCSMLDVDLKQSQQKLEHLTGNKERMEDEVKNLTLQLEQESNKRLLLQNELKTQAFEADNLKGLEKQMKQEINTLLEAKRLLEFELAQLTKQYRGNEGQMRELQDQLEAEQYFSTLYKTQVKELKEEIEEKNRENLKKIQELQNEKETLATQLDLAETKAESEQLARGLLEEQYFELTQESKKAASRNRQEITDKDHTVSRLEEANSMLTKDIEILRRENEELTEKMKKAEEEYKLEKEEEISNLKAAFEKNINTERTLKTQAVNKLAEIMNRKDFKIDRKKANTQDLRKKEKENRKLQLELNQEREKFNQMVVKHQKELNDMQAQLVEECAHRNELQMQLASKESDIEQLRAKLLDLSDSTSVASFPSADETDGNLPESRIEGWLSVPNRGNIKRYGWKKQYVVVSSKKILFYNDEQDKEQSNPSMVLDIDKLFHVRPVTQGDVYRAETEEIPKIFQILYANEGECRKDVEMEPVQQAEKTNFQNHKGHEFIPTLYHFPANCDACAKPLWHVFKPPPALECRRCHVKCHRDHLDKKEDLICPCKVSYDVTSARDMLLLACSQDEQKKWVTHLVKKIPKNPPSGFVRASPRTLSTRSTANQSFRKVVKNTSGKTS
Chain of ROCK2 (O75116 whole entry): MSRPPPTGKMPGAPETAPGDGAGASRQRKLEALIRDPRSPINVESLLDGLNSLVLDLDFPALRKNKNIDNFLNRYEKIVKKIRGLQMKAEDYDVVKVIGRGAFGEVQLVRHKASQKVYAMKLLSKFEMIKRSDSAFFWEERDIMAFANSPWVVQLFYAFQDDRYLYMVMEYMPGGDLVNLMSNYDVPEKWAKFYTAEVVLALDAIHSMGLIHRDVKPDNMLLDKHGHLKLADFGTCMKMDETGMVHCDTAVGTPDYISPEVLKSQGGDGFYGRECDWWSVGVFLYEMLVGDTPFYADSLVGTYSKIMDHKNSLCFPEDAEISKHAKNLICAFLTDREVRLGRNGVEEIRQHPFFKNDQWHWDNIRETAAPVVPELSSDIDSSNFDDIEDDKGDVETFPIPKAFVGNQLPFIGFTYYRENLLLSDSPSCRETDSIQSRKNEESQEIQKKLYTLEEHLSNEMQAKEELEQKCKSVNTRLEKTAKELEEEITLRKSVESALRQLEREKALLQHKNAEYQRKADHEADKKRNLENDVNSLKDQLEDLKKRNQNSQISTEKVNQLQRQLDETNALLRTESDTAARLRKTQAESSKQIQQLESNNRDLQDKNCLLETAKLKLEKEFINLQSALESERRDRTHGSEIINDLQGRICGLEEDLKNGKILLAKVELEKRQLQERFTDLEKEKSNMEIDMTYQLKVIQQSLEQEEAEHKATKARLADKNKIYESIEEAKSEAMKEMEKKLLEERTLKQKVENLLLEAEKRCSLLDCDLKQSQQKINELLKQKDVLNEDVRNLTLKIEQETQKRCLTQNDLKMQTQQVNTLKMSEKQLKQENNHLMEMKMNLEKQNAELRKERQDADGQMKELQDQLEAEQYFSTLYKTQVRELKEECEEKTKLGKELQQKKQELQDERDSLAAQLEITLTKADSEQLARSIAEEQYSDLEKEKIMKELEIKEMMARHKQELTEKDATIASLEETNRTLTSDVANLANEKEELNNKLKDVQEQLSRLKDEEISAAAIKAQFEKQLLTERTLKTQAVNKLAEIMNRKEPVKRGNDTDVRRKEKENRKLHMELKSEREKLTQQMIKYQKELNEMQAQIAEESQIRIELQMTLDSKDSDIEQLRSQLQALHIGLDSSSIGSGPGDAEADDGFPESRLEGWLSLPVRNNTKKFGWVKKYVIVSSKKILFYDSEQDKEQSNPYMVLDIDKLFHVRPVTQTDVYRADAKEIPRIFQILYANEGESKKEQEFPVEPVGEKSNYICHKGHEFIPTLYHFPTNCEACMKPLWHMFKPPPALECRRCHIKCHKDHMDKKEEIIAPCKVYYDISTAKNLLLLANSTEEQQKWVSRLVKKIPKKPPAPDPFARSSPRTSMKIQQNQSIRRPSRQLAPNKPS
Chain of murine VEGFR2 (P35918 20-1345): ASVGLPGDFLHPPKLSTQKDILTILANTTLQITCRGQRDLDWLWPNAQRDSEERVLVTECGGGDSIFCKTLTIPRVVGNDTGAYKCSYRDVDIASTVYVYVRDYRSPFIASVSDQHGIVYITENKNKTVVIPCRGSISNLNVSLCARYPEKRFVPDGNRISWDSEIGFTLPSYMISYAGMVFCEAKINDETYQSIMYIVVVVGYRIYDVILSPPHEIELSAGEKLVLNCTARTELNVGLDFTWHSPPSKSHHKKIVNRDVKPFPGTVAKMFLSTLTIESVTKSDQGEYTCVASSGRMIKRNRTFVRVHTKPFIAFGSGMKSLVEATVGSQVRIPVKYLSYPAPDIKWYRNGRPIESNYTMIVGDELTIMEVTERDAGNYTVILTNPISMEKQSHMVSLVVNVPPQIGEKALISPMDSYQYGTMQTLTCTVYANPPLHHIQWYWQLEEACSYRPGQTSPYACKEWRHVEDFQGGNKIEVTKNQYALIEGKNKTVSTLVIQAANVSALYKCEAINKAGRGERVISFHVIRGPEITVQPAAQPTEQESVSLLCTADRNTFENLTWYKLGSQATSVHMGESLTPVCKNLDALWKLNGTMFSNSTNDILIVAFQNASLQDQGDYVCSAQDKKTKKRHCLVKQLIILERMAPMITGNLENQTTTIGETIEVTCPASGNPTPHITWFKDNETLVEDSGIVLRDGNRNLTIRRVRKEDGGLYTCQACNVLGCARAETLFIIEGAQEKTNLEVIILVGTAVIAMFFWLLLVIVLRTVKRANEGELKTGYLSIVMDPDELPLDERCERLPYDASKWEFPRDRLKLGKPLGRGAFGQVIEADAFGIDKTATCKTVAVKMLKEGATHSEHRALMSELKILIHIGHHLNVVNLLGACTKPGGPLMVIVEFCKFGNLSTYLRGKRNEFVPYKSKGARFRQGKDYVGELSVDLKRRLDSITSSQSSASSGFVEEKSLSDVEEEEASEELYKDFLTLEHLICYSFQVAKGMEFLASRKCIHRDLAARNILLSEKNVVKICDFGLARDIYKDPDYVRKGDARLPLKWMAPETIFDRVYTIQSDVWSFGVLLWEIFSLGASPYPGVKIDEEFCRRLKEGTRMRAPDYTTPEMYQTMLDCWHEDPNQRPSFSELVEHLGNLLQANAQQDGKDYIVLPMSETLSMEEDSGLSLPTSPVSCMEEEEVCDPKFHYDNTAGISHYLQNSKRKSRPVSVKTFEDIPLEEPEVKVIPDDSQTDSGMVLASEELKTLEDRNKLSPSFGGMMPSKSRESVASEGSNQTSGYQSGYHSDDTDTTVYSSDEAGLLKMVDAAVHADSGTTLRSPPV

As to `COc1ccc2c(c1)CN(c1nccc(Nc3ccc4[nH]ncc4c3)n1)C2` [Example 1, N-(2-(5-Methoxyisoindolin-2-yl)pyrimidin-4-yl)-1H-indazol-5-amine], the “EAE paralysis / mean clinical score” value in experiment [1] is on record as “reduces paralysis”. Moreover, in experiment [1] (listed as compound 1), the “EAE paralysis / mean clinical score” value is recorded as “substantial improvement”. Also, in experiment [2], the IFN-γ secretion entry is “not observed”, the IL-2 secretion result was “not observed”, the IL-17 secretion entry is on record as “dose-dependent; also recorded: significantly inhibited” and the IL-21 secretion entry is given as “inhibits; also recorded: significantly inhibited”.

One may read the IC50 as the midpoint of a concentration-inhibition curve. A high value points to weaker potency. The molecule `c1ccc2c(c1)CN(c1nccc(Nc3ccc4[nH]ncc4c3)n1)C2` [Example 2, N-(2-(Isoindolin-2-yl)pyrimidin-4-yl)-1H-indazol-5-amine] returned an IC50 in experiment [3] greater than 10 µM.

`COc1ccc2c(c1)CN(c1ccnc(Nc3ccc4[nH]ncc4c3)n1)C2` [Example 8, N-(4-(5-Methoxyisoindolin-2-yl)pyrimidin-2-yl)-1H-indazol-5-amine]: the concentration for half-maximal inhibition (IC50) in experiment [3] is greater than 10 µM.

In turn, `Clc1ccc2c(c1)CN(c1nccc(Nc3ccc4[nH]ncc4c3)n1)C2` [Example 10, N-(2-(5-Chloroisoindolin-2-yl)pyrimidin-4-yl)-1H-indazol-5-amine] yielded an IC50 in experiment [3] greater than 10 µM.

In turn, `COc1ccc2c(c1)CCN(c1nccc(Nc3ccc4[nH]ncc4c3)n1)C2` [Example 11, N-(2-(6-Methoxy-3,4-dihydroisoquinolin-2(1H)-yl)pyrimidin-4-yl)-1H-indazol-5-amine] came in with a half-inhibitory concentration (IC50) in experiment [3] greater than 10 µM.

Turning to `c1cc(Nc2ccc3[nH]ncc3c2)nc(N2CCc3sccc3C2)n1` [Example 12, N-(2-(6,7-Dihydrothieno[3,2-c]pyridin-5(4H)-yl)pyrimidin-4-yl)-1H-indazol-5-amine], the IC50 in experiment [3] is greater than 10 µM.

In turn, `COc1ccc2c(c1)CN(c1cc(Nc3ccc4[nH]ncc4c3)ncn1)C2` [Example 13, N-(6-(5-Methoxyisoindolin-2-yl)pyrimidin-4-yl)-1H-indazol-5-amine] gave an IC50 in experiment [3] greater than 10 µM.

Turning to `COc1ccc2c(c1)CN(c1cc(Nc3ccc4[nH]ncc4c3)nc(C)n1)C2` [Example 14, N-(6-(5-Methoxyisoindolin-2-yl)-2-methylpyrimidin-4-yl)-1H-indazol-5-amine], the IC50 in experiment [4] is 0.13 to 0.18 µM; in experiment [3], greater than 10 µM.

As for `c1cc2c(cn1)CN(c1nccc(Nc3ccc4[nH]ncc4c3)n1)C2` [Example 15, N-(2-(1H-Pyrrolo[3,4-c]pyridin-2(3H)-yl)pyrimidin-4-yl)-1H-indazol-5-amine], the IC50 in experiment [3] was greater than 10 µM.

For `COc1ccc2c(c1)CN(c1nc(C)c(C)c(Nc3ccc4[nH]ncc4c3)n1)C2` [Example 16, N-(2-(5-Methoxyisoindolin-2-yl)-5,6-dimethylpyrimidin-4-yl)-1H-indazol-5-amine], in experiment [4], the IC50 is greater than 0.01 µM.

In experiment [3], `c1ccc2c(c1)CN(c1nc3c(c(Nc4ccc5[nH]ncc5c4)n1)COC3)C2` [Example 17, N-(1H-Indazol-5-yl)-2-(isoindolin-2-yl)-5,7-dihydrofuro[3,4-d]pyrimidin-4-amine] showed an IC50 greater than 10 µM.

With `COc1ccc2c(c1)CN(c1nccc(Nc3ccncc3)n1)C2` [Example 19, 2-(5-Methoxyisoindolin-2-yl)-N-(pyridin-4-yl)pyrimidin-4-amine], the IC50 in experiment [4] and in experiment [3] was greater than 10 µM throughout.

In experiment [3], `COc1ccc2c(c1)CN(c1nccc(Nc3ccc(-c4ccncc4)cc3)n1)C2` [Example 20, 2-(5-Methoxyisoindolin-2-yl)-N-(4-(pyridin-4-yl)phenyl)pyrimidin-4-amine] registered an IC50 greater than 10 µM.

`COc1ccc2c(c1)CN(c1nc3c(c(Nc4ccc5[nH]ncc5c4)n1)COCC3)C2` [Example 21, N-(1H-Indazol-5-yl)-2-(5-methoxyisoindolin-2-yl)-7,8-dihydro-5H-pyrano[4,3-d]pyrimidin-4-amine]: the IC50 in experiment [4] was 0.185 µM; in experiment [3] it was greater than 10 µM.

Regarding `COc1ccc2c(c1)CN(c1nc3c(c(Nc4ccc5[nH]ncc5c4)n1)CNC3)C2` [Example 22, N-(1H-Indazol-5-yl)-2-(5-methoxyisoindolin-2-yl)-6,7-dihydro-5H-pyrrolo[3,4-d]pyrimidin-4-amine], the IC50 in experiment [4] is 24.3 µM and 24 µM.

In turn, `COc1ccc2c(c1)CN(c1nc3c(c(Nc4ccc5[nH]ncc5c4)n1)CCNC3)C2` [Example 24, N-(1H-Indazol-5-yl)-2-(5-methoxyisoindolin-2-yl)-5,6,7,8-tetrahydropyrido[3,4-d]pyrimidin-4-amine] registered an IC50 in experiment [3] of 2.5 µM.

In the case of `COc1ccc2c(c1)CN(c1nc3c(c(Nc4ccc5[nH]ncc5c4)n1)CCN(C)C3)C2` [Example 25, N-(1H-Indazol-5-yl)-2-(5-methoxyisoindolin-2-yl)-7-methyl-5,6,7,8-tetrahydropyrido[3,4-d]pyrimidin-4-amine], the IC50 is 0.13 µM in experiment [4] and greater than 10 µM in experiment [3].

On to `N#Cc1ccc2c(c1)CN(c1nccc(Nc3ccc4[nH]ncc4c3)n1)C2` [Example 26, 2-(4-((1H-Indazol-5-yl)amino)pyrimidin-2-yl)isoindoline-5-carbonitrile], for which the 50% inhibitory concentration (IC50) in experiment [4] was 0.123 µM; in experiment [3], greater than 10 µM.

As to `COCc1ccc2c(c1)CN(c1nccc(Nc3ccc4[nH]ncc4c3)n1)C2` [Example 27, N-(2-(5-(Methoxymethyl)isoindolin-2-yl)pyrimidin-4-yl)-1H-indazol-5-amine], the IC50 in experiment [4] came out at 0.1 µM; in experiment [3], 6.73 µM.

On to `Fc1cccc2c1CN(c1nccc(Nc3ccc4[nH]ncc4c3)n1)C2` [Example 29, N-(2-(4-Fluoroisoindolin-2-yl)pyrimidin-4-yl)-1H-indazol-5-amine], for which the IC50 in experiment [4] came out at 0.88 µM.

`Fc1ccc2c(c1)CN(c1nc3c(c(Nc4ccc5[nH]ncc5c4)n1)COC3)C2` [Example 30, 2-(5-Fluoroisoindolin-2-yl)-N-(1H-indazol-5-yl)-5,7-dihydrofuro[3,4-d]pyrimidin-4-amine] yielded an IC50 in experiment [3] greater than 10 µM.

For the molecule `COc1nc(N2Cc3ccccc3C2)nc(Nc2ccc3[nH]ncc3c2)c1OC` [Example 32, N-(2-(Isoindolin-2-yl)-5,6-dimethoxypyrimidin-4-yl)-1H-indazol-5-amine], the values for the half-inhibitory concentration (IC50) in experiment [4] and in experiment [3] were 0.607 µM and greater than 10 µM, respectively.

B1: Mab 149: affinity matured anti-VEGFR2 antibody derived from Mab 138; VH SEQ ID NO:216, VL SEQ ID NO:220 (antibody, V domains shown)
VH: EVQLLESGGGLVQPGGSLRLSCAASGFTFSWYVMGWVRQAPGKGLEWVSSIYPSGGATNYADSVKGRFTISRDNSKNTLYLQMNSLRAEDTAVYYCARGNYLDYWGQGTLVTVSS
VL: DIQMTQSPGTLSLSPGEGATLSCRASQSVSSNYFGWYQQKPGQAPRLLIYGASSRATGIPDRFSGSGSGTDFTLTISRLEPEDSAVYYCQQFDSSPLSFGGGTKVEIKR
modifications: Mutated library sequence
Take B1: the ka in experiment [5] stood at 8.62E+04; in experiment [6] it was 3.32E+04; in experiment [7] it was 2.29E+04. The kd in experiment [5] worked out at 6.59E−04; in experiment [6], 1.43E−03; in experiment [7] it was 1.81E−03.
